Patent US20080090805A1, “CB-1 MODULATING COMPOUNDS AND THEIR USE” (ACADIA PHARMACEUTICALS INC., priority 2005, published 2008)

What was measured:
obese Zucker rats = assay: Chronic feeding study; assay type: in vivo; conditions: 1, 3, 10 mg/kg/day, dose-dependent, FIGS. 9A-9D
Method: Male, obese Zucker rats (400-500 g) served as subjects for these studies. Rats were housed individually and had access to food and water ad libitum. Rats were allowed to acclimate to the vivarium for a period of 3 days, during which body weight and consumption of food and water was monitored. […] Daily food and water intakes were also monitored. Food and water bottles were weighed at the time body weights were recorded (i.e., 1350 hr). Vehicle or compound was administered daily for a period of up to 15 days.

C57 BK/6 mice = assay: Novel object recognition study; assay type: in vivo; conditions: test 1 or 2 hours after dosing, CP 55,940 0.3 mg/kg ip, SR141716A 1 mg/kg ip, Compound II 3 mg/kg ip, FIGS. 10, 11
Method: Subjects: Subjects were male, C57 BK/6 mice purchased from Harlan Laboratories, weighing 15-20 g upon arrival. Animals were housed 8 per cage with food and water available ad libidum. Animals were housed on a 12 hr light cycle (lights on 6 am) for 4-7 days prior to behavioral testing.
Equipment: Novel object recognition (NOR) was conducted in a novel environment consisting of a white plastic tub measuring 45.7×33.7×19 cm. Prior to each trial the bottom of the tub was covered with a piece of plastic lined bench top paper. There were two sets of identical objects chosen so that when given a opportunity to explore, mice would evenly divide exploration time between the objects. “A” objects were yellow, ceramic, 12-sided ramekins measuring 4 cm high×7 cm diameter. “B” objects were 8×8×4 cm stainless steel, 4-sided ramekins.
Procedure: At the beginning of each test day, animals were placed in groups of 6 into clean cages. Testing was conducted in three phases: acclimation, sample and test. […] Each mouse was allowed to explore the chamber and the objects for 3 min., and the time spent exploring at each position was recorded. Directly sniffing or touching the object was recorded as exploration. […] The test sessions were recorded on video and scored by an observer blind to each subject's treatment condition. Any time spent directly sniffing or touching an object was counted as exploration. […]

[1] = tested on: rats with unilateral 6-OH dopamine lesions; assay: Rotation study (unilateral 6-hydroxy-dopamine lesion); assay type: in vivo; conditions: 6-OH dopamine lesioned rats; apomorphine 0.05, 0.16, 0.5 mg/kg ip; Compound II 3 mg/kg; FIGS. 14-16
[2] = microsomes
in vitro [3] = conditions: rat, microsomes, pH 7.4
in vitro [4] = conditions: mouse, microsomes, pH 7.4
NSA mice [5] = assay: Hypothermia study (block of CP 55,940-induced hypothermia); assay type: in vivo; conditions: pretreatment 30 min prior to CP55,940, dose-dependent, FIG. 6
Method: . […] Core body temperatures were then obtained at various time points following CP 55,940 administration. Core body temperature (to the nearest 0.1° C.) was obtained by rectal probe.

[6] = tested on: fasted Sprague-Dawley rats; assay: Acute feeding study; assay type: in vivo; conditions: 1, 3, 10 mg/kg, dose-dependent, FIGS. 2-4
Method: Male, Sprague-Dawley rats (90-120 g) served as subjects for these studies. Rats were fasted for a period of 16 hrs (water was always available). After the fasting period, test compounds were administered either intraperitoneally (ip) or orally (po). Immediately following compound administration, the rats were returned to their home cage. Following 30 min after compound administration, the rats were removed from their home cages and placed individually into clean cages with a pre-measured amount of food. Food weights were obtained (to the nearest 0.1 g) at various time points. Food consumption was monitored for a period of up to 2 hrs (i.e., 2.5 hr after test compound administration).

NSA mice [7] = assay: Tail flick study (block of CP 55,940 antinociception); conditions: test compound ip 30 min prior to CP55,940, FIGS. 5A, 5B

## CCCCNC(=O)c1ccc2c(c1)N=C(c1ccc(Cl)cc1)c1ccccc1S2 [Compound II, N-(butyl)-11-(4-chlorophenyl)-dibenzo[b,f,][1,4]thiazepine-8-carboxamide]
Obese Zucker rats
  food and water intake: attenuated the food and water intake of the rats
C57 BK/6 mice
  preference for the novel object (exploration ratio, discrimination index): showed a preference for the novel object
[1]
  contralateral rotations: augments dopaminergic functions

## CN1CCc2cccc3c2[C@H]1Cc1ccc(O)c(O)c1-3 [apomorphine, reference compound]
[1]
  contralateral rotations: dose-dependently elicits contralateral rotations

## CCCCNC(=O)c1ccc2c(c1)N=C(c1ccc(Cl)cc1)c1ccc(Cl)cc1S2 [drawing 1732]
[2]
  Clearance Human: 0
In vitro [3]
  microsomal CLint at 1 μM: 24 µL/min/mg
In vitro [4]
  microsomal CLint at 1 μM: 29 µL/min/mg

## CCCCCCC(C)(C)c1ccc([C@@H]2C[C@H](O)CC[C@H]2CCCO)c(O)c1 [CP 55,940, reference compound]
C57 BK/6 mice
  preference for the novel object (exploration ratio, discrimination index): showed a preference for the novel object after 1 hour of being dosed with the test compound but then returned back to baseline exploration rates after 2 hours

## O=C(NN1CCCCC1)c1ccc2c(c1)N=C(C1CCCCC1)c1ccccc1S2 [Compound I, 11-Cyclohexyl-dibenzo[b,f][1,4]thiazepine-8-carboxylic acid piperidin-1-ylamide]
NSA mice [5]
  effect on CP 55,940-induced hypothermia (core body temperature): attenuates CP 55,940-induced hypothermia
[6]
  cumulative food intake: suppresses the cumulative food intake in fasted rats
NSA mice [7]
  effect on antinociceptive actions of CP55,940 (tail flick latency): attenuates the antinociceptive actions of CP55,940
